The values below come from ChEMBL document CHEMBL5316297, “Mechanistic Insight of Synthesized 1,4-Dihydropyridines as an Antidiabetic Sword against Reactive Oxygen Species” (J Med Chem, 2023).

The test system of data set [1] is Mus musculus. In words: Antidiabetic activity against high fat diet-STZ-induced diabetic Swiss albino mouse model assessed as insulin resistance by measuring serum IL6 level at 0.2 mmol/Kg/day, po administered for 14 days by ELISA method (reference value: 39.30+/-4.14 pg/ml). It counts as functional. Conditions: time 14 day. For orientation: ELISA stands for enzyme-linked immunosorbent assay.

Data set [2] concerns INS1. The data set is described as follows: Induction of apoptosis in rat INS1 cells assessed as necrotic cells at 1 uM incubated for 36 hrs by Annexin V-FITC/ propidium iodide staining based flow cytometry analysis (reference value: 1.15%). The format is functional. A general note: Flow cytometry measures light scatter and fluorescence of single cells or particles in a stream.

The subject of data set [3] is INS1. The data set is described as follows: Induction of apoptosis in rat INS1 cells assessed as early apoptotic cells at 1 uM incubated for 36 hrs by Annexin V-FITC/ propidium iodide staining based flow cytometry analysis (reference value: 0.34%). The format is functional.
Data set [4] can be described thus: Cytotoxicity against human MCF-10F cells assessed as cell growth inhibition at 10 uM relative to control. It counts as toxicity, cell-based. The conditions noted are these: read-out: GI.
The nature of data set [5]: Cytotoxicity against human BJ cells assessed as cell growth inhibition at 10 uM relative to control. The format is toxicity, cell-based. The conditions noted are these: read-out: GI.
Data set [6] in a line: Cytotoxicity against human MRC5 cells assessed as cell growth inhibition at 10 uM relative to control. The format is toxicity, cell-based. Conditions: read-out: GI.
Data set [7] is described as follows: Cytotoxicity against human ECT1/E6E7 cells assessed as cell growth inhibition at 10 uM relative to control. It counts as toxicity, cell-based. The conditions noted are these: read-out: GI.
A short description of data set [8]: Cytotoxicity against human WPE1-NA22 cells assessed as cell growth inhibition at 10 uM relative to control. The format is toxicity, cell-based. The conditions noted are these: read-out: GI.
The test system of data set [9] is Mus musculus. The data set is described as follows: Antidiabetic activity against high fat diet-STZ-induced diabetic Swiss albino mouse model assessed as reduction in blood glucose level at 0.2 mmol/Kg/day, po administered for 14 days. It counts as functional. Conditions: time 14 day.
A short description of data set [10]: Cytotoxicity against human HCN-1A cells assessed as cell growth inhibition at 10 uM relative to control. It counts as toxicity, cell-based. The conditions noted are these: read-out: GI.
Data set [11] deals with Mus musculus. In words: Antidiabetic activity against high fat diet-STZ-induced diabetic Swiss albino mouse model assessed as insulin resistance by measuring serum TNFalpha level at 0.2 mmol/Kg/day, po administered for 14 days by ELISA method (reference value: 376.50+/-14.50 ng/ml). The format is functional. Conditions: time 14 day.
The nature of data set [12]: Cytotoxicity against HEK293 cells assessed as cell growth inhibition at 10 uM relative to control. The format is toxicity, cell-based. The conditions noted are these: human, read-out: GI.
Data set [13] deals with INS1. In words: Induction of apoptosis in rat INS1 cells assessed as total apoptotic cells at 1 uM incubated for 36 hrs by Annexin V-FITC/ propidium iodide staining based flow cytometry analysis (reference value: 0.53%). It counts as functional.
For data set [14], the system named is Mus musculus. In words: Antioxidant activity against high fat diet-STZ-induced diabetic Swiss albino mouse model assessed as serum MDA level at 0.2 mmol/Kg/day, po administered for 14 days (reference value: 8.70+/- 0.09 nmol/ml). The format is functional. Conditions: time 14 day.
For data set [15], the system named is Mus musculus. The data set is described as follows: Antidiabetic activity against high fat diet-STZ-induced diabetic Swiss albino mouse model assessed as reduction in blood glucose level at 0.2 mmol/Kg/day, po administered for 14 days relative to control. It counts as functional. The arrangement: scale not given: the % may be the effect or the level left. The conditions noted are these: time 14 day.

Data set [16] has as its system Mus musculus. In words: Antioxidant activity against high fat diet-STZ-induced diabetic Swiss albino mouse model assessed as serum SOD level at 0.2 mmol/Kg/day, po administered for 14 days (reference value: 273.01+/- 6.23 U/ml). The format is functional. The conditions noted are these: time 14 day.
Data set [17] can be described thus: Toxicity in high fat diet-STZ-induced diabetic Swiss albino mouse model assessed as changes in body weight at 0.2 mmol/Kg/day, po administered for 14 days (reference value: 26.6 to 27.8 g). The conditions noted are these: in vivo, 336 h, time 14 day. The format is organism-based.
Data set [18] is described as follows: Cytotoxicity against human THLE-2 cells assessed as cell growth inhibition at 10 uM relative to control. It counts as toxicity, cell-based. The conditions noted are these: read-out: GI.
The test system of data set [19] is Mus musculus. In words: Antioxidant activity against high fat diet-STZ-induced diabetic Swiss albino mouse model assessed as serum catalase level at 0.2 mmol/Kg/day, po administered for 14 days (reference value: 378.22+/- 14.45 U/ml). The conditions noted are these: time 14 day. The format is functional.
For data set [20], the system named is INS1. The data set is described as follows: Induction of apoptosis in rat INS1 cells assessed as late apoptotic cells at 1 uM incubated for 36 hrs by Annexin V-FITC/ propidium iodide staining based flow cytometry analysis (reference value: 0.19%). It counts as functional.
Data set [21] deals with Mus musculus. In words: Antidiabetic activity against high fat diet-STZ-induced diabetic Swiss albino mouse model assessed as serum insulin level at 0.2 mmol/Kg/day, po administered for 14 days by ELISA method (reference value: 16.37 +/- 0.62 uU/ml). It counts as functional. Conditions: time 14 day.
The test system of data set [22] is voltage dependent L/T-type calcium channel. In words: Inhibition of voltage dependent L/T-type calcium channel in human SH-SY5Y cells. Conditions: sh-sy5y.
Data set [23] is described as follows: Cytotoxicity against human THLE-2 cells assessed as cell growth inhibition. It counts as toxicity, cell-based.
Data set [24] in a line: Cytotoxicity against HEK293 cells assessed as cell growth inhibition. The format is toxicity, cell-based. The conditions noted are these: human.
The nature of data set [25]: Cytotoxicity against human MCF-10F cells assessed as cell growth inhibition. It counts as toxicity, cell-based.
Data set [26] in a line: Cytotoxicity against human MRC5 cells assessed as cell growth inhibition. It counts as toxicity, cell-based.
Data set [27] can be described thus: Cytotoxicity against human BJ cells assessed as cell growth inhibition. It counts as toxicity, cell-based.
The nature of data set [28]: Cytotoxicity against human WPE1-NA22 cells assessed as cell growth inhibition. It counts as toxicity, cell-based.
Data set [29] in a line: Cytotoxicity against human ECT1/E6E7 cells assessed as cell growth inhibition. It counts as toxicity, cell-based.
The nature of data set [30]: Cytotoxicity against human HCN-1A cells assessed as cell growth inhibition. The format is toxicity, cell-based.
Data set [31] addresses T1, Alpha amylase (Homo sapiens, UniProt P0DUB6).
T1 sequence (P0DUB6 whole entry): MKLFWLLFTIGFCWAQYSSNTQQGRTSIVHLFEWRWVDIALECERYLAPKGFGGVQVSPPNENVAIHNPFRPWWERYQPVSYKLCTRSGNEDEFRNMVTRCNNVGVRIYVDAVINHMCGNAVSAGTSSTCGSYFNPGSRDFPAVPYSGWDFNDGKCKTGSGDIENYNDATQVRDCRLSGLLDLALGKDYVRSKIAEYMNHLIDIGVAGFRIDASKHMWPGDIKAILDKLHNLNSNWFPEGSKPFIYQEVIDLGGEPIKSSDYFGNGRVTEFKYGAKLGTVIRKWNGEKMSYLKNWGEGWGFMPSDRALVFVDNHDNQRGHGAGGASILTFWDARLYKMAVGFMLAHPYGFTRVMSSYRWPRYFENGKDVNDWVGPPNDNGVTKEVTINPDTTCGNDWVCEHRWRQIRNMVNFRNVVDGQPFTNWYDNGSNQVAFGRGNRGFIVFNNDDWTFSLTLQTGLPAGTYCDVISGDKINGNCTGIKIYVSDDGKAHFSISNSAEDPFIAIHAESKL
In words: Inhibition of alpha amylase (unknown origin) measured after 20 to 25 mins.

As to `CCC1=C(C)CN(C(=O)NCCc2ccc(S(=O)(=O)NC(=O)N[C@H]3CC[C@H](C)CC3)cc2)C1=O` [GLIMEPIRIDE], the Activity was 195.75 pg/mL in data set [1]; 2.86% in [2]; 0.49% in data set [3]; 198.3 mg/dL in [9]; 639.5 ng/mL in data set [11]; 0.76% in data set [13]. Besides, the Activity in data set [14] was 14.52 nmol/mL; in data set [15], 33.5%; in data set [16], 202.06 U/ml; in data set [17], 30.92 g; in [19], 199.33 U/ml; in data set [20], 0.27%. Besides, in [21], the Activity was 11.88 uU/ml. Further, the inhibition at 10 µM in data set [4] worked out at 27.1%; in data set [5] it was 35.8%; in [6], 24.2%; in data set [7] it was 22%; in [8], 27.8%; in data set [10], 41.6%. Also, the inhibition at 10 µM is 74% in [12] and 28.8% in [18].

What is called IC50 is the concentration at which inhibition is half-maximal. In the case of `COC(=O)C1=C(C)NC(C)=C(C(=O)OC)C1c1ccccc1[N+](=O)[O-]` [NIFEDIPINE], the half-maximal inhibitory concentration (IC50) in data set [22] is 21.9 µM.

In general, GI50 refers to the concentration at which growth is held to half of that of the control. `COc1cccc2c1C(=O)c1c(O)c3c(c(O)c1C2=O)C[C@@](O)(C(=O)CO)C[C@@H]3O[C@H]1C[C@H](N)[C@H](O)[C@H](C)O1` [DOXORUBICIN]: the GI50 was determined as 17.1 µM in data set [23]; 9.69 µM in [24]; 14.2 µM in data set [25]; 12.5 µM in [26]; 8.91 µM in data set [27]; 11.6 µM in data set [28]. Also, the GI50 worked out at 1.47 µM in data set [29] and 11.2 µM in data set [30]. Also, the inhibition at 10 µM turned out to be 41.6% in data set [4]; 45.8% in data set [5]; 38.4% in [6]; 33% in data set [7]; 57.1% in [8]; 40.9% in [10]. In addition, the results for the inhibition at 10 µM in data set [12] and in data set [18] were 46% and 35.6%, respectively.

Take `CN(N=O)C(=O)N[C@@H](C=O)[C@@H](O)[C@H](O)[C@H](O)CO` [STREPTOZOCIN]: the Activity in data set [2] stood at 11.65%; in data set [3], 1.62%; in data set [13] it was 2.09%; in data set [20] it was 0.47%.

For the compound `O=c1c(O)c(-c2ccc(O)c(O)c2)oc2cc(O)cc(O)c12` [QUERCETIN], the concentration for half-maximal inhibition (IC50) in [31] stood at 8.21 µM.
